Values after ≈ are worked out from the molar mass of the structure shown. Values joined by “and” are separate entries in the source; they are usually repeats but may differ in a detail not shown here. Equal values may be shown once. Read-outs that look alike come from different tables or passages of the source.
How the values were obtained:
ERK2 in MDA-MB-453 cells = assay: RNAi-mediated gene knockdown of ERK2 (MAPK1), growth inhibition; assay type: cell-based, human; details: for cell proliferation: digitoxin 0.4 μg/ml, 24 hours; for inhibition at 20 µg/mL: Homo sapiens, MDA-MB-453, 48 h, actein 20 μg/ml, 48 h, read-out: percent growth inhibition
Experimental: RNAi-mediated gene knockdown. To test the functional relevance of ERK2 (p42/44MAPK pathway), the growth inhibitory effects of actein on MDA-MB-453 cells using the model system RNAi-mediated gene knockdown was examined. Cells were pretreated with siRNA to ERK2 (Hs/Mm MAPK1 siRNA) (Qiagen, Valencia, Calif.) for 24 h, then treated with actein at 20 μg/ml for 48 h, and the percent surviving cells was assayed. Western blot analysis was performed to confirm the ERK2 knockdown.

MDA-MB-453 cells [1] = assay: Cell-cycle analysis by DNA flow cytometry; assay type: cell-based, human; details: for G1 / G2 / S / SubG1: 24 hours; for Sub G1 (%) / G1 (%) / G2/M (%) / S (%): 48 hrs
Experimental: Synchrony: To synchronize the cells, 3×10^5 cells were plated onto 10 cm dishes and grown for 2 days in DMEM supplemented with 10% fetal bovine serum.
After incubation for 1-3 days, the supernatant was collected, and the cells were trypsinized, collected, and washed with phosphate buffered saline (PBS) containing 5% FBS. Cell pellets were re-suspended in 1 ml of PBS plus 5% FBS. Thereafter, 5 ml of 70% ethanol were added drop-wise, while vortexing the tube, and the mixture was stored at 4° C. Cells were centrifuged, washed with PBS plus 5% FBS, and re-suspended in 400 μl of propidium iodide (0.1 mg/ml) (Sigma Chemical Co.). 400 μl (2 mg/ml) of RNase (Sigma Chemical Co.) were added, and the cells were incubated in the dark at room temperature for 30 min.

BT474 cells = assay: Cell proliferation, cell count (Coulter Counter); assay type: cell-based; details: Homo sapiens
MDA-MB-453 cells [2] = assay: Western-blot analysis; assay type: cell-based, human; details: for increase in level of p-Src: serum-starved MDA-MB-453, 80 μg/ml, 30 min; for IκB band intensity relative to β-actin / IκκB band intensity relative to β-actin / PPAR-γ band intensity relative to β-actin / p-Her2 level (WB) / cyclin D1 band intensity relative to β-actin: MDA-MB-453
Experimental: Cells were treated for increasing times with approximately the IC50 concentration, or twice the IC50 concentration, of actein. The cells were harvested, washed with PBS, and sonicated in extraction buffer according to the procedure of Han et al. (Han et al., Stable overexpression of cyclin D1 in a human mammary epithelial cell line prolongs the S-phase, and inhibits growth. Oncogene, 10:953-61, 1995). The lysates were subjected to electrophoresis on a 10% or 12.5% SDS-polyacrylamide gel, and then transferred to a polyvinylidene difluoride (PVDF) membrane. The membrane was blocked with milk protein, and incubated with a solution containing the primary antibody against the following: cyclin D1 (Upstate Biotechnology, Lake Placid, N.Y.), p21^cip1 (Oncogene Research Products, Darmstadt, Germany), ppRb (ser 780, Medical and Biological Laboratories, Nagoya, Japan), cdk4 (Upstate Biotechnology, Lake Placid, N.Y.), EGFR (clone-74, Transduction Laboratories, Lexington, Ky.), p-EGFR (phospho (Y1173)-EGFR) (Cell Signaling, Beverly, Mass.), actin (Sigma, St. Louis, Mo.), Her-2/neu (Cell Signaling, Beverly, Mass.), or phospho-(Y1248)-Her-2/neu (Cell Signaling, Beverly, Mass.)), IκB (Sant Cruz Biotechnolgy, Santa Cruz, Calif.), IκκB (Sigma, St. Louis, Mo.) and PPARγ (Santa Cruz biotechnology, Santa Cruz, Calif.) (Masuda et al., Epigallocatechin-3-gallate inhibits activation of HER-2/neu and downstream signaling pathways in human head and neck and breast carcinoma cells. Clin. Cancer Res., 9: 3486-91, 2003). The membrane was washed, and incubated with horseradish peroxidase conjugated secondary antibody.
Protein bands were visualized with the ECL-enhanced chemiluminescence system, according to the manufacturer's directions (Amersham Pharmacia Biotech) (Sgambato et al., Overexpression of p27 (Kip1) inhibits the growth of both normal and transformed human mammary epithelial cells. Cancer Research, 58:3448-54, 1998). The staining intensities of the visualized blots were quantified using NIH image software. For each protein, the relative band intensities were determined by comparing treated samples with untreated controls. These values were then normalized, using β-actin as an internal control.
Western blot analysis. […] To assay activation of p-Src, cells were allowed to attach for 24 h, incubated in media without serum for 24 h; the medium was replaced with media without serum with DMSO, actein or digtioxin.
Western blot analysis was performed as previously described. […] The membrane was incubated with the primary antibodies, cyclin D1 (Santa Cruz Biotechnology; Santa Cruz, Calif.), p-Src, Akt, p-Akt, ERK2 or p-Erk2 (Cell signaling, Beverly, Mass.); β-actin was used as a loading control.
Western blot analysis was performed as described previously.

MDA-MB-453 cells [3] = assay: Cell proliferation, cell count (Coulter Counter); details: Homo sapiens, MDA-MB-453, 96 h
Experimental: For the cell count assay, breast cancer cells were seeded, in triplicate, at 2×10^4 cells per well, in 24- or 96-well plates.
(§1) For the Coulter counter assay, cells were seeded at 2×10^4 cells per well in 24 well plates (0.875 cm diameter) as described previously. […] Control and treated cells were compared using the student's t-test (p<0.05). For cell cycle analysis the cells were plated (3×10^5) onto 6 cm dishes and allowed to attach for 24 hours. […] After 24 hours the cells were analyzed by DNA flow cytometry, as described previously.

Na^+-K^+-ATPase = test system: T1, Na^+-K^+-ATPase; assay: Combination of agents on Na^+-K^+-ATPase activity, combination index; assay type: biochemical
T1 construct: Combination index; actein (μM); Combination index; actein; ATPase activity; other: actein 0.8 μM alone; other: digitox
Experimental: Enzymatic assay of adenosine 5′-triphosphatase. The enzymatic assay of ATPase (adenosine 5′-triphosphatase, EC 3.6.1.3) followed the Sigma Prod. […] [P] was determined by the Taussky-Shorr method.

MCF7 cells = assay: MTT assay, 96 hours; assay type: cell-based, human
MDA-MB-453 cells [4] = assay: MTT assay, 96 hours; assay type: cell-based, human; details: for IC50: Homo sapiens, MTT, 96 h
Experimental: as §1

C[C@H]1O[C@@H](O[C@H]2[C@@H](O)C[C@H](O[C@H]3[C@@H](O)C[C@H](O[C@H]4CC[C@@]5(C)[C@H](CC[C@@H]6[C@@H]5CC[C@]5(C)[C@@H](C7=CC(=O)OC7)CC[C@]65O)C4)O[C@@H]3C)O[C@@H]2C)C[C@H](O)[C@@H]1O [digitoxin]
cell proliferation (ERK2 in MDA-MB-453 cells; control siRNA): 96.0% | cell proliferation (ERK2 in MDA-MB-453 cells; siRNA to MAPK1): 76.9% | G1 (MDA-MB-453 cells [1]; digitoxin 0.2 μg/mL): 46.50 (1.98) % | G2 (MDA-MB-453 cells [1]; digitoxin 0.2 μg/mL): 19.05 (0.07) % | S (MDA-MB-453 cells [1]; digitoxin 0.2 μg/mL): 27.65 (0.64) % | SubG1 (MDA-MB-453 cells [1]; digitoxin 0.2 μg/mL, SD in parentheses): 6.77 (1.06) % | G1 (MDA-MB-453 cells [1]; digitoxin 2.0 μg/mL): 41.90 (2.26) % | G2 (MDA-MB-453 cells [1]; digitoxin 2.0 μg/mL): 32.10 (1.27) % | S (MDA-MB-453 cells [1]; digitoxin 2.0 μg/mL): 17.80 (0.42) % | SubG1 (MDA-MB-453 cells [1]; digitoxin 2.0 μg/mL): 5.78 (1.02) % | IC50 (BT474 cells; BT-474, BT474, Coulter counter): 0.03 µg/mL and 40 nM | IC50 (BT474 cells; BT-474, BT474, unit inferred): 39 nM | increase in level of p-Src (MDA-MB-453 cells [2]): 1.5 fold | IC50 (MDA-MB-453 cells [3]): 0.04 µg/mL and 50 nM | ATPase activity (Na^+-K^+-ATPase; digitoxin 0.2 μM alone): 87.8% | ATPase activity (Na^+-K^+-ATPase; digitoxin 0.8 μM alone): 53.6% | IC50 (MCF7 cells; Homo sapiens, MCF7, MCF7): 0.2 µg/mL | IC50 (MCF7 cells; Homo sapiens, MCF7, MCF7, unit inferred): 261 nM | IC50 (MCF7 cells; MCF7, unit inferred): 260 nM | IC50 (MDA-MB-453 cells [4]; MDA-MB-453, 96 h): ~0.025 µg/mL and ~33 nM

CC(=O)O[C@@H]1C[C@@]23C[C@@]24CC[C@H](O[C@@H]2OC[C@@H](O)[C@H](O)[C@H]2O)C(C)(C)[C@@H]4CC[C@H]3[C@]2(C)C[C@@H]3O[C@]4(C[C@@H](C)[C@@H]3[C@@]12C)O[C@H](O)[C@@]1(C)O[C@@H]41 [actein]
inhibition at 20 µg/mL (ERK2 in MDA-MB-453 cells; ERK2 siRNA): 79.6% | inhibition at 20 µg/mL (ERK2 in MDA-MB-453 cells; control siRNA): 100% | Sub G1 (%) (MDA-MB-453 cells [1]; (a) DMEM + […] FBS 48 hrs, then actein 20 μg/ml): 1.8% | G1 (%) (MDA-MB-453 cells [1]; (a) […] FBS, actein 20 μg/ml): 79.6% | G2/M (%) (MDA-MB-453 cells [1]; (a) […] FBS, actein 20 μg/ml): 10.0% | S (%) (MDA-MB-453 cells [1]; (a) […] FBS, actein 20 μg/ml): 8.5% | G1 (%) (MDA-MB-453 cells [1]; (a) […] FBS, actein 40 μg/ml): 83.8% | G2/M (%) (MDA-MB-453 cells [1]; (a) […] FBS, actein 40 μg/ml): 9.0% | S (%) (MDA-MB-453 cells [1]; (a) […] FBS, actein 40 μg/ml): 4.9% | Sub G1 (%) (MDA-MB-453 cells [1]; (a) […] FBS, actein 40 μg/ml): 2.2% | G1 (%) (MDA-MB-453 cells [1]; (b) Actein 2 μg/mL): 69.8% | G2/M (%) (MDA-MB-453 cells [1]; (b) Actein 2 μg/mL): 18.6% | S (%) (MDA-MB-453 cells [1]; (b) Actein 2 μg/mL): 11.0% | Sub G1 (%) (MDA-MB-453 cells [1]; (b) Actein 2 μg/mL): 0.9% | G1 (%) (MDA-MB-453 cells [1]; (b) Actein 20 μg/mL): 70.8% | G2/M (%) (MDA-MB-453 cells [1]; (b) Actein 20 μg/mL): 18.2% | S (%) (MDA-MB-453 cells [1]; (b) Actein 20 μg/mL): 9.7% | Sub G1 (%) (MDA-MB-453 cells [1]; (b) Actein 20 μg/mL): 1.6% | G1 (%) (MDA-MB-453 cells [1]; (c) Actein 20 μg/mL): 59.2% | G2/M (%) (MDA-MB-453 cells [1]; (c) Actein 20 μg/mL): 29.5% | S (%) (MDA-MB-453 cells [1]; (c) Actein 20 μg/mL): 8.6% | Sub G1 (%) (MDA-MB-453 cells [1]; (c) Actein 20 μg/mL): 2.7% | IC50 (BT474 cells; BT-474, BT474, unit inferred, read-out: IC50): 23600 nM | IκB band intensity relative to β-actin (MDA-MB-453 cells [2]; 3 h, 20 μg/ml): 1.2 fold | IκκB band intensity relative to β-actin (MDA-MB-453 cells [2]; 3 h, 20 μg/ml): 1.79 fold | PPAR-γ band intensity relative to β-actin (MDA-MB-453 cells [2]; 3 h, 20 μg/ml): 1.39 fold | p-Her2 level (WB) (MDA-MB-453 cells [2]; 3 h, 20 μg/ml): 0.71 fold | IκB band intensity relative to β-actin (MDA-MB-453 cells [2]; 3 h, 40 μg/ml): 1.09 fold | IκκB band intensity relative to β-actin (MDA-MB-453 cells [2]; 3 h, 40 μg/ml): 1.78 fold | PPAR-γ band intensity relative to β-actin (MDA-MB-453 cells [2]; 3 h, 40 μg/ml): 0.93 fold and 0.92 fold | cyclin D1 band intensity relative to β-actin (MDA-MB-453 cells [2]; 3 h, 40 μg/ml): 0.93 fold | p-Her2 level (WB) (MDA-MB-453 cells [2]; 3 h, 40 μg/ml): 0.86 fold | IκκB band intensity relative to β-actin (MDA-MB-453 cells [2]; 10 h, 20 μg/ml): 0.48 fold | IκκB band intensity relative to β-actin (MDA-MB-453 cells [2]; 10 h, 40 μg/ml): 0.59 fold | IκB band intensity relative to β-actin (MDA-MB-453 cells [2]; 24 h, 20 μg/ml): 0.81 fold | IκκB band intensity relative to β-actin (MDA-MB-453 cells [2]; 24 h, 20 μg/ml): 1.06 fold | PPAR-γ band intensity relative to β-actin (MDA-MB-453 cells [2]; 24 h, 20 μg/ml): 1.3 fold | cyclin D1 band intensity relative to β-actin (MDA-MB-453 cells [2]; 24 h, 20 μg/ml): 1.3 fold | p-Her2 level (WB) (MDA-MB-453 cells [2]; 24 h, 20 μg/ml): 0.81 fold | IκB band intensity relative to β-actin (MDA-MB-453 cells [2]; 24 h, 40 μg/ml): 0.53 fold | IκκB band intensity relative to β-actin (MDA-MB-453 cells [2]; 24 h, 40 μg/ml): 0.95 fold | PPAR-γ band intensity relative to β-actin (MDA-MB-453 cells [2]; 24 h, 40 μg/ml): 0.67 fold | cyclin D1 band intensity relative to β-actin (MDA-MB-453 cells [2]; 24 h, 40 μg/ml): 0.44 fold | p-Her2 level (WB) (MDA-MB-453 cells [2]; 24 h, 40 μg/ml): 0.53 fold | increase in level of p-Src (MDA-MB-453 cells [2]): 1.5 fold | IC50 (MDA-MB-453 cells [3]): ~8 µg/mL (≈ 11.8 µM) | ATPase activity (Na^+-K^+-ATPase; actein 0.8 μM alone): 95.1% | IC50 (MCF7 cells; Homo sapiens, MCF7, unit inferred, read-out: IC50): 20700 nM | amplification: IC50 ATPase inhibition / IC50 growth inhibition (MDA-MB-453 cells [4]): about 2 fold | IC50 (MDA-MB-453 cells [4]; read-out: IC50): ~5 µg/mL and ~7.4 µM
